Source: patent US4368203A, “Antibiotics and derivatives thereof having β-lactamase inhibitory activity and production thereof” (priority 1977, dated 1983)
Values after ≈ are worked out from the molar mass of the structure shown. “Also recorded” adds a separate entry of the source. Read-outs that look alike come from different tables or passages of the source.

How the values were obtained:
[1] = system: Alcaligenes faecalis B-326; test: MIC, broth dilution method; assay type: cell-based; conditions: Alcaligenes faecalis, B326, read-out: Minimum inhibitory concentration
Experimental: (§1) Sodium salt of the antibiotic PS-7 was dissolved and diluted with the BRAIN HEART INFUSION BROTH "Eiken" at a concentration between 5 μg/ml and 100 μg/ml. The solution was further diluted with the same medium to obtain a series of geometric concentrations. To the serial dilutions were added the seed cultures prepared by shaking culture of various test microorganisms shown in Tab. 5 in the BRAIN HEART INFUSION GROTH at 28° C. for 18 hours, the final cell count being about 1×10^5 /ml. […] The lowest concentration at which no cell growth was observed was the minimum inhibitory concentration of the antibiotic PS-7 on the test microorganism. […] . The minimum inhibitory concentrations on test strains were determined in the same manner as mentioned above. […] For the comparison, the results on the known antibiotics Cephazolin and Cefoxitin are also given in the same table.

[2] = system: Citrobacter freundii E-9; test: MIC, broth dilution method; assay type: cell-based; conditions: Citrobacter freundii, read-out: Minimum inhibitory concentration
Experimental: as §1

[3] = system: Enterobacter cloacae E-16; test: MIC, broth dilution method; assay type: cell-based; conditions: Enterobacter cloacae, read-out: Minimum inhibitory concentration
Experimental: Sodium salt of the antibiotic PS-7 was dissolved and diluted with the BRAIN HEART INFUSION BROTH "Eiken" at a concentration between 5 μg/ml and 100 μg/ml. The solution was further diluted with the same medium to obtain a series of geometric concentrations. To the serial dilutions were added the seed cultures prepared by shaking culture of various test microorganisms shown in Tab. 5 in the BRAIN HEART INFUSION GROTH at 28° C. for 18 hours, the final cell count being about 1×10^5 /ml. […] The lowest concentration at which no cell growth was observed was the minimum inhibitory concentration of the antibiotic PS-7 on the test microorganism. […] The minimum inhibitory concentrations on test strains were determined in the same manner as mentioned above.

[4] = Acute toxicity, intraperitoneal administration; assay type: in vivo, DDY male mice
[5] = system: Inducible penicillinase of Bacillus cereus 569 (ATCC 27348); test: Susceptibility to beta-lactamase as enzymic substrate; assay type: biochemical; conditions: for Km: 30° C., pH 6.8 phosphate buffer, decrease of optical density at 301 nm (PS-6) or 308 nm (PS-7); for Behavior against β-lactamase: β-lactamase of Bacillus cereus
Experimental: (b) Inducible penicillinase of Bacillus cereus 569 (ATCC 27348). This beta-lactamase was induced by ampicillin and purified by CM-cellulose column chromatography.
Time course of the hydrolysis was traced at 30° C. by determining the decrease in optical density at 301 nm which corresponds specifically to the concentration of antibiotic PS-6. As described in Japanese Patent Application No. 94651/77, the antibiotic PS-5 sodium salt preparation gave a E1 cm^1% value of 267.5 at the λmax of 301 nm. If this preparation contained no water of crystallization, its epsilon value would be 8560.
As 5% of the initial optical density of antibiotic PS-5 at 301 nm remained even after the complete decomposition with hydroxylamine or beta-lactamase, the differential optical density of this substrate at 301 nm was supposed to be Δε=8132. This was supposed to be applicable to the antibiotic PS-6, and the following calculation was carried out.
(b) Inducible penicillinase of Bacillus cereus 569. Time course of the hydrolysis of antibiotic PS-6 by this beta-lactamase was followed under the above-described conditions by determining the optical density at 301 nm of the reaction mixtures containing 7.5 μl of the above mentioned enzyme preparation and […] of antibiotic PS-6 as the substrate in a total of 3.0 ml (final concentration of antibiotic PS-6=[…]/ml=8.63 μg/ml; optical density at 301 nm=0.366).
The behavior of the antibiotic PS-7 (sodium salt) against the induced-type penicillinase produced by Bacillus careus 569 (ATCC 27348) as the substrate was examined according to the following method:
Sodium salt of the antibiotic PS-7 was dissolved in 100 mM phosphate buffer solution (pH 6.8) at the indicated concentration.
The induced-type penicillinase of Bacillus cereus 569 (ATCC 27348) was induced by Ampicillin and partially purified by CM cellulose (Brown Co.) column chromatography.
The solution of the antibiotic PS-7 that was served as the substrate was warmed at 30° C. […] The reaction was carried out at 30° C. and a decrease in the substrate, antibiotic PS-7, was monitered by the absorbance at 308 nm.
A balance of absorbance at 308 nm was determined to be ε=9720 on the assumption that the ε value of the antibiotic PS-7 is 10,800 based on the decrease in the absorbance when pure preparation of the antibiotic PS-7 was completely decomposed by the enzyme above mentioned.
A reaction mixture containing 10 μl of the penicillinase preparation and 102 mμ moles of the antibiotic PS-7 (final concentration: 34 mμ moles/ml) in a total volumn of 3.0 ml was incubated under the conditions mentioned above and change of decreasing concentration of the antibiotic PS-7 was measured in relation to the incubation time.

[6] = Stability (general statements); assay type: physicochemical; conditions: general statement
[7] = system: Gram-positive and Gram-negative bacteria; test: Antibiotic spectra (summary in words); assay type: cell-based; conditions: for Antibiotic activity against Gram-negative bacteria resistant to β-lactam antibiotics: genera Citrobacter, Proteus, Klebsiella, Enterobacter, Serratia as named at the place; for Antibiotic activity against Gram-positive bacteria: genera Staphylococcus, Diplococcus, Streptococcus, Bacillus as named at the place
[8] = system: β-lactamase-producing, β-lactam-resistant bacteria; test: Increase of the antibiotic activity of other antibiotics (summary in words); assay type: cell-based; conditions: β-lactamase-producing bacteria such as Proteus vulgaris, Serratia marcescens
Experimental: 10 ml of 2.5 folds diluted nutrient agar (pH 7.0) containing 50 μg/ml of penicillin G or cephaloridine was seeded with the β-lactamase producing and β-lactam-resistant microorganisms and poured in a 9 cm Petri dish to provide the bio-assay agar plate. […] A control assay plate was similarly prepared without penicillin G or cephaloridine. As reference antibiotics, 10,000 μg/ml of penicillin G or 20 μl of cephaloridine were disc-assayed under the same conditions.
Cepholoridine was added to a 2.5-times diluted nutrient agar, pH 7.0 and the medium was inoculated with a β-lactam-producing strain that produceds β-lactamase. Ten ml of the medium was spread and solidified in a petri dish of 9 cm in diameter to prepare an assay plate. […] Each 20 μl of the solution and its 2- and 4-times diluted solutions was soaked in a pulp disc of 8 mm in diameter. To the surface of the above nutrient agar was placed the pulp disc and the size of the growth inhibitory zone around the disc was examined after incubation at 35° C. for 18 hours. […] In addition, for the comparison, a similar experiment was also performed with a pulp disk soaked with 20 μl of 10,000 μg/ml Penicillin G or Cepholoridine solution in place of the antibiotic PS-7.

Row | Compound | MIC ([1]; Table 7, no unit in the head) [µg/mL] | MIC ([2]; E9, Table 7, no unit in the head, lactamase-producing strain) [µg/mL] | MIC ([3]; E16, Table 7, no unit in the head, lactamase-producing strain) [µg/mL] | Acute toxicity ([4]; DDY male mice, dose not given) | Acute toxicity ([4]; mice, 500 mg/kg) | Km [5] [µM] | Behavior against β-lactamase [5] | Stability [6] | Antibiotic activity against Gram-negative bacteria of the genus Alcaligenes (Comamonas) [7] | Antibiotic activity against Gram-negative bacteria resistant to β-lactam antibiotics [7] | Antibiotic activity against Gram-positive bacteria [7] | Synergistic enhancement of the activity of penicillin G or cephaloridine (β-lactam antibiotics) [8] | MIC ([1]; Table 5, 35° C. 20 hours) [µg/mL] | MIC ([2]; E9, 20 h, Table 5, betalactamase producer) [µg/mL] | MIC ([3]; E16, 20 h, Table 5, betalactamase producer) [µg/mL] | Acute toxicity ([4]; mice, 500 mg/kg, listed as PS-6 sodium salt) | Antibiotic activity against Gram-negative bacteria of the genera Klebsiella, Proteus [7]
1 | CCC1C(=O)N2C(C(=O)O)=C(SC=CNC(C)=O)CC12 (stereo not shown) [Antibiotic PS-7] | 0.78 (≈ 2.63 µM) | 3.13 (≈ 10.6 µM) | 6.25 (≈ 21.1 µM) | No acute toxicity | no acute toxicity | 13 | inactivated | somewhat labile; also recorded: more stable in the salt form than in the free acid state | high antimicrobial activity | high antimicrobial activity | very high antimicrobial activity | ability to enhance antimicrobial activity of other antibiotics; also recorded: evident enhancement of antimicrobial activity | – | – | – | – | –
2 | CC(=O)NCCSC1=C(C(=O)O)N2C(=O)C(C(C)C)C2C1 (stereo not shown) [Antibiotic PS-6] | – | – | – | – | no toxicity | 17.7 | inactivated | somewhat labile; also recorded: more stable in the salt form than in the free acid state | very strong activity | strong activity | very strong activity | showed clearly the synergistic effect; also recorded: ability to increase the antibiotic activity of other antibiotics | 1.56 (≈ 4.99 µM) | 12.5 (≈ 40 µM) | 25 (≈ 80 µM) | No acute toxicity | good activity
